Key:
[1] = system: HCT-15; assay: In vitro cytotoxicity against human colon cancer HCT 15 cell line; format: functional
[2] = system: COLO 205; assay: In vitro cytotoxicity against human colon cancer COLO 205 cell line; format: functional
[3] = system: HCT-116; assay: In vitro cytotoxicity against human colon cancer HCT 116 cell line; format: functional
[4] = system: HCC 2998; assay: In vitro cytotoxicity against human colon cancer HCC 2998 cell line; format: functional
[5] = system: HT-29; assay: In vitro cytotoxicity against human colon cancer HT 29 cell line; format: functional
[6] = system: KM12; assay: In vitro cytotoxicity against human colon cancer KM 12 cell line; format: functional
[7] = system: Hs-578T; assay: In vitro cytotoxicity against human breast cancer Hs 578.T cell line; format: functional
[8] = system: DU-145; assay: in vitro cytotoxicity against DU-145 cancer cell line; format: functional; conditions: Homo sapiens
[9] = system: M14; assay: in vitro cytotoxicity against M-14 cancer cell line; format: functional; conditions: Homo sapiens
[10] = system: MDA-MB-231; assay: In vitro cytotoxicity against human breast cancer MDA-MB 231 cell line; format: functional
[11] = system: MCF7; assay: In vitro cytotoxicity against human breast cancer MCF-7 cell line; format: functional
[12] = system: SW-620; assay: In vitro cytotoxicity against human colon cancer SW 620 cell line; format: functional
[13] = system: MDA-N; assay: In vitro cytotoxicity against human breast cancer MDA-N cell line; format: functional
[14] = system: A498; assay: in vitro cytotoxicity against A 498 cancer cell line; format: functional; conditions: Homo sapiens
[15] = system: SK-OV-3; assay: in vitro cytotoxicity against SKOV3 cancer cell line; format: functional; conditions: Homo sapiens
[16] = system: BT-549; assay: In vitro cytotoxicity against human breast cancer BT-549 cell line; format: functional
[17] = system: MDA-MB-435; assay: In vitro cytotoxicity against human breast cancer MDA-MB 435 cell line; format: functional
[18] = In vitro cytotoxicity against human breast cancer MCF-7 ADR cell line; format: functional; conditions: MCF7
[19] = system: SK-OV-3; assay: Compound was evaluated for in vitro cytotoxicity against SKOV3 cancer cell line; format: functional; conditions: Homo sapiens
[20] = system: MCF7; assay: in vitro cytotoxicity against MCF-7 ADR cancer cell line; format: functional; conditions: Homo sapiens
[21] = system: M14; assay: Compound was evaluated for in vitro cytotoxicity against M-14 cancer cell line; format: functional; conditions: Homo sapiens
[22] = system: DU-145; assay: Compound was evaluated for in vitro cytotoxicity against DU-145 cancer cell line; format: functional; conditions: Homo sapiens
[23] = system: NCI-H522; assay: Compound was evaluated for in vitro cytotoxicity against H522 cancer cell line; conditions: Homo sapiens
[24] = system: A498; assay: Compound was evaluated for in vitro cytotoxicity against A 498 cancer cell line; format: functional; conditions: Homo sapiens
[25] = system: MCF7; assay: Compound was evaluated for in vitro cytotoxicity against MCF-7 ADR cancer cell line; format: functional; conditions: Homo sapiens
[26] = system: MCF7; assay: Compound was evaluated for in vitro cytotoxicity data against human breast cancer MCF-7 ADR cell line; format: functional

Row | SMILES | GI50 [1] [nM] | GI50 [2] [nM] | GI50 [3] [nM] | GI50 [4] [nM] | GI50 [5] [nM] | GI50 [6] [nM] | GI50 [7] [nM] | GI50 [10] [nM] | GI50 [11] [nM] | GI50 [12] [nM] | GI50 [13] [nM] | GI50 [16] [nM] | GI50 [17] [nM] | GI50 [18] [nM] | also measured
1 | COC(=O)[C@@H]1C(c2cc(OC)c(OC)c(OC)c2)c2cc3c(cc2[C@@H]2OC(=O)OC[C@@H]12)OCO3 (some centres not stated) | 10000 | 2000 | > 30000 | 20000 | > 30000 | 70000 |  |  |  |  |  |  |  |  | 
2 | CCOC(=O)[C@@H]1C(c2cc(OC)c(OC)c(OC)c2)c2cc3c(cc2[C@@H]2OC(=O)OC[C@@H]12)OCO3 (some centres not stated) | 200 | 1500 | 90 | 8000 | 2000 | 6000 |  |  |  |  |  |  |  |  | 
3 | CCOC(=O)[C@@H]1[C@H](c2cc(OC)c(O)c(OC)c2)c2cc3c(cc2[C@@H]2OC(=O)OC[C@@H]12)OCO3 | 400 | 30000 | 600 | 1500 | 200 | 200 |  |  |  |  |  |  |  |  | 
4 | CCOC(=O)[C@@H]1[C@H](c2cc(OC)c(O)c(OC)c2)c2cc3c(cc2[C@H](O)[C@H]1CO)OCO3 | 2070 | 1160 | 1700 | 1300 | 880 | 780 | 1200 | 6780 | 2170 | 1170 | 1060 | 4910 | 840 |  | GI50 [8]: 1630 nM; GI50 [9]: 2100 nM; GI50 [14]: 1100 nM; GI50 [15]: 3350 nM
5 | CCCCOC(=O)[C@@H]1[C@H](c2cc(OC)c(OC)c(OC)c2)c2cc3c(cc2[C@H](O)[C@H]1CO)OCO3 | 2000 | 1900 | 3700 | 1800 | 2500 | 1860 |  | > 30000 | 2000 | 2200 | 11500 | > 30000 | 1600 | 5600 | 
6 | CCOC(=O)[C@@H]1[C@H](c2cc(OC)c(OC)c(OC)c2)c2cc3c(cc2[C@H](O)[C@H]1CO)OCO3 | 13000 | 14000 | 24000 | 14000 | 17000 | 8400 | 27000 | 18000 | 23000 | 26000 | 3500 | > 30000 | 4400 | 14000 | GI50 [8]: > 30000 nM; GI50 [9]: 14900 nM; GI50 [14]: > 30000 nM; GI50 [19]: 29900 nM; GI50 [20]: 14300 nM
7 | COC(=O)[C@@H]1[C@H](c2cc(OC)c(O)c(OC)c2)c2cc3c(cc2[C@@H]2OC(=O)OC[C@@H]12)OCO3 | 400 | 200 | 500 | 1000 | > 30000 | 400 |  |  |  |  |  |  |  |  | 
8 | COC(=O)[C@@H]1[C@H](c2cc(OC)c(O)c(OC)c2)c2cc3c(cc2[C@H](O)[C@H]1CO)OCO3 | 1020 | 100 | 200 | 800 | 90 | 110 | 3120 | 100 | 300 | 340 | 100 | 500 | 100 | 100 | GI50 [8]: 470 nM; GI50 [9]: 860 nM; GI50 [14]: 400 nM; GI50 [15]: 340 nM; GI50 [20]: 100 nM
9 | CCCOC(=O)[C@@H]1[C@H](c2cc(OC)c(OC)c(OC)c2)c2cc3c(cc2[C@H](O)[C@H]1CO)OCO3 | 1400 | 1200 | 420 | 1700 | 890 | 560 | 2130 | > 30000 | 800 | 700 | 1450 | > 30000 | 400 | 3200 | 
10 | COC(=O)[C@@H]1[C@H](c2cc(OC)c(OC)c(OC)c2)c2cc3c(cc2C(=O)[C@H]1CO)OCO3 | 5710 | 7710 | 6260 | 10800 | 3520 | 3620 | 1890 | 16500 | 4110 | 3710 | 2240 | 29000 | 1640 | 17500 | 
11 | COc1cc([C@@H]2c3cc4c(cc3[C@H](O)[C@@H](CO)[C@@H]2C(=O)O)OCO4)cc(OC)c1OC | > 100000 | < 10 | 40000 | 55000 | 50000 | < 10 |  |  |  |  |  |  |  |  | 
12 | CCCOC(=O)[C@@H]1C(c2cc(OC)c(OC)c(OC)c2)c2cc3c(cc2[C@@H]2OC(=O)OC[C@@H]12)OCO3 (some centres not stated) | 300 | 900 | 500 | 2000 | > 30000 | 2000 |  |  |  |  |  |  |  |  | 
13 | COC(=O)[C@@H]1[C@H](c2cc(OC)c(OC)c(OC)c2)c2cc3c(cc2[C@H](O)[C@H]1CO)OCO3 | 40 | 10 | 40 | 30 | 20 | 20 | 10 | 30 | 30 | 20 | 10 | 60 | 10 | 40 | GI50 [21]: 40 nM; GI50 [22]: 40 nM; GI50 [23]: 10 nM; GI50 [24]: 30 nM; GI50 [25]: 40 nM; GI50 [19]: 30 nM
14 | CCOC(=O)[C@@H]1[C@H](c2cc(OC)c(OC)c(OC)c2)c2cc3c(cc2C(=O)[C@H]1CO)OCO3 | 3990 | 2220 | 4350 | 5630 | 3360 | 4210 | 1560 | 5990 | 3860 | 2070 | 1700 | 5450 | 1330 | 5140 | 
15 | COc1cc([C@@H]2c3cc4c(cc3[C@@H](O[C@@H]3O[C@@H]5CO[C@@H](C)O[C@H]5[C@H](O)[C@H]3O)[C@H]3COC(=O)[C@H]23)OCO4)cc(OC)c1O [ETOPOSIDE] |  | 18100 | 6160 | 3460 | 15100 | 5620 | 8000 | 2000 |  |  | < 10 |  | 900 |  | GI50 [26]: 25000 nM
16 | COc1cc([C@@H]2c3cc4c(cc3[C@H](O)[C@H]3COC(=O)[C@H]23)OCO4)cc(OC)c1OC [PODOFILOX] | 20 |  | 10 | 200 | 10 | 10 | 80 | 40 | 900 |  | 70 |  | 700 | 600 | 

From ChEMBL document CHEMBL1130825, “Novel D-ring analogues of podophyllotoxin as potent anti-cancer agents” (1998)
